Measured values reported in US20130288990A1, “CONTROLLING PESTS BY COMBINING INSECTICIDES AND TRANSGENIC PLANTS BY APPLYING DIRECTLY TO LEAVES AND ROOTS” (priority 2007, published 2013).

Legend:
Assay type in all cases: in vivo
[1] = tested on: Spodoptera frugiperda; assay: Spodoptera frugiperda test (leaf application), transgenic maize
Excerpt: (§1) A synergistic effect in insecticides and acaricides is always present when the effect of the present invention's combinations is greater than the expected effect, which for a given combination can be calculated after S. R. Colby, Weeds 15 (1967), 20-22 as follows:
(§2) when • X is the kill rate expressed in % of the untreated control on using active compound A at an application rate of m g/ha or in a concentration of m ppm, • Y is the kill rate expressed in % of the untreated control on using active compound B at an application rate of n g/ha or in a concentration of n ppm and • Z is the kill rate expressed in % of the untreated control on using active compound C at an application rate of r g/ha or in a concentration of r ppm, • E is the efficacy on using active compounds A and B and C in application rates of m and n and r g/ha then
(§3) If the actual kill rate is greater than calculated, then the killing effect of the combination is superadditive, i.e., a synergistic effect is present. In this case, the actually observed kill rate has to be greater than that calculated from the above-recited formula for the expected kill rate (E).
Pots each holding 5 transgenic maize plants with Lepidoptera, Coleoptera and/or herbicide resistance are treated in 2 replications against the army worm (Spodoptera frugiperda).
(§4) After the desired time, the kill in % is determined 100% means that all the caterpillars were killed; 0% means that no caterpillars were killed.

[2] = tested on: Heliothis armigera; assay: Heliothis armigera test (leaf application), transgenic cotton
Excerpt: as §1, §2, §3
Individually potted transgenic cotton plants with Lepidoptera resistance and herbicide resistance (line DP444 BG/RR) are treated with the desired product against the cotton ball worm (Heliothis armigera).
as §4

[3] = tested on: Spodoptera frugiperda; assay: Spodoptera frugiperda test (drench application), transgenic maize
Excerpt: as §1, §2, §3
The earth of the pots each with 5 transgenic maize plants with Lepidoptera, Coleoptera and/or herbicide resistance is drenched with the desired product. Then, the plants are infected with larvae of the army worm (Spodoptera frugiperda).
as §4

[4] = tested on: Spodoptera exigua; assay: Spodoptera exigua test (leaf application), transgenic maize
Excerpt: as §1, §2, §3
Pots each holding 5 transgenic maize plants with Lepidoptera, Coleoptera and/or herbicide resistance are treated in 2 replications against the small mottled willow (Spodoptera exigua).
as §4

[5] = tested on: Aphis gossypii; assay: Aphis gossypii test (leaf application), transgenic cotton
Excerpt: as §1, §2
as §3, with “(E). […]” for “(E).”
After the desired time, the kill in % is determined 100% means that all the aphids were killed; 0% means that no aphids were killed.

[6] = tested on: Spodoptera frugiperda; assay: Spodoptera frugiperda test (leaf application), transgenic cotton
Excerpt: as §1, §2, §3
Individually potted transgenic cotton plants with Lepidoptera resistance and herbicide resistance (line DP444 BG/RR) are treated with the desired product against the army worm (Spodoptera frugiperda)
as §4

Compound: Abamectin
- Kill in % after 1 d ([1]; 0.16 ppm): 10%
- Kill in % after 4 d ([2]; 0.16 ppm): 30%
- Kill in % after 1 d ([3]; 4 ppm): 0%
- Kill in % after 4 d ([3]; 4 ppm): 0%
- Kill in % after 4 d ([4]; 0.16 ppm): 35%

Compound: N#Cc1nn(-c2c(Cl)cc(C(F)(F)F)cc2Cl)c(N)c1[S+]([O-])C(F)(F)F (stereo not drawn) [Fipronil]
- Kill in % after 4 d ([5]; 4 ppm): 25%
- Kill in % after 4 d ([3]; 20 ppm): 0%
- Kill in % after 4 d ([4]; 4 ppm): 0%

Compound: CNC(=O)c1cc(Cl)cc(C)c1NC(=O)c1cc(Br)nn1-c1ncccc1Cl [(I-1)]
- Kill in % after 4 d ([5]; 0.16 ppm): 0%
- Kill in % after 4 d ([1]; 0.0064 ppm): 0%
- Kill in % after 1 d ([1]; 0.16 ppm): 0%
- Kill in % after 4 d ([2]; 0.032 ppm): 50%
- Kill in % after 4 d ([3]; 4 ppm): 0%
- Kill in % after 1 d ([3]; 20 ppm): 30%
- Kill in % after 3 d ([3]; 20 ppm): 45%
- Kill in % after 4 d ([3]; 20 ppm): 50%
- Kill in % after 4 d ([6]; 0.032 ppm): 70%
- Kill in % after 6 d ([6]; 0.032 ppm): 15%
- Kill in % after 4 d ([4]; 0.032 ppm): 0%
- Kill in % after 1 d ([4]; 0.16 ppm): 0%
- Kill in % after 4 d ([4]; 0.16 ppm): 0%

Compound: CN/C(=N\[N+](=O)[O-])NCc1cnc(Cl)s1 [Clothianidin]
- Kill in % after 4 d ([2]; 0.16 ppm): 0%
- Kill in % after 4 d ([3]; 4 ppm): 10%
- Kill in % after 4 d ([6]; 0.16 ppm): 0%
- Kill in % after 1 d ([4]; 4 ppm): 0%

Compound: O=[N+]([O-])NC1=NCCN1Cc1ccc(Cl)nc1 [Imidacloprid]
- Kill in % after 1 d ([1]; 4 ppm): 0%
- Kill in % after 3 d ([3]; 4 ppm): 0%
- Kill in % after 6 d ([6]; 4 ppm): 10%
- Kill in % after 1 d ([4]; 4 ppm): 0%

Compound: Spinosad
- Kill in % after 4 d ([1]; 0.16 ppm): 0%
- Kill in % after 4 d ([2]; 0.16 ppm): 20%
- Kill in % after 4 d ([3]; 4 ppm): 0%
- Kill in % after 4 d ([4]; 0.16 ppm): 20%
